Test results: patent publication US11331327B2, “Antibacterial use of halogenated salicylanilides” (UNION therapeutics A/S, priority 2014, dated 2022)
In brackets after ≈: the same amount, converted by molar mass. Read-outs that look alike come from different tables or passages of the source.

Test system: S. aureus clinical isolates and S. aureus ATCC 29213
Assay: MIC assay according to CLSI criteria, Example 2, S. aureus strains
Type: cell-based, Staphylococcus aureus
Settings: Staphylococcus aureus, read-out: MIC
Method: Strains were conserved in Luria Bertani (LB) Broth (S. aureus) or Brain Heart Infusion (BHI) (S. pyogenes) supplemented with glycerol 15% (v/v) at −80° C., and reactivated by isolation on LB (S. aureus) or BHI (S. pyogenes) agar plates. Strains were cultivated in Mueller Hinton (MH) Broth-cation adjusted (S. aureus) or BHI (S. pyogenes). All strains were cultivated aerobically (microaerobically for S. pyogenes strains) at 37° C.
Bacterial cultures were stopped in their exponential growth phase and plates were inoculated with the approximate concentration of 5×10^5 cells per well. Plates were incubated at 37° C. for 18 hours (S. aureus) or 24 hours (S. pyogenes).

## CC(=O)O[C@H]1C[C@@]2(C)[C@@H](C[C@@H](O)[C@H]3[C@@]4(C)CC[C@@H](O)[C@@H](C)[C@@H]4CC[C@@]32C)/C1=C(\CCC=C(C)C)C(=O)O [Fusidic acid]
ATCC29213, strain 9-1862936
  MIC: 0.125 µg/mL (≈ 0.242 µM)
ATCC29213, strain 9-2625962
  MIC: 0.25 µg/mL (≈ 0.484 µM)
ATCC29213, strain 9-2642158
  MIC: 0.25 µg/mL (≈ 0.484 µM)
ATCC29213, strain 9-2955245
  MIC: 0.25 µg/mL (≈ 0.484 µM)
ATCC29213, strain 9-26422166
  MIC: 8 µg/mL (≈ 15.5 µM)
ATCC29213, strain 000040C
  MIC: 0.25 µg/mL (≈ 0.484 µM)
ATCC29213, strain 000041C
  MIC: 0.25 µg/mL (≈ 0.484 µM)
ATCC29213, strain 000274T
  MIC: 0.5 µg/mL (≈ 0.968 µM)
ATCC29213, strain 114660U
  MIC: 0.25 µg/mL (≈ 0.484 µM)
ATCC29213, strain 115015T
  MIC: 0.25 µg/mL (≈ 0.484 µM)
ATCC29213, strain 115242C
  MIC: 8 µg/mL (≈ 15.5 µM)
ATCC29213, strain 115263C
  MIC: 0.125 µg/mL (≈ 0.242 µM)
ATCC29213, strain 115268C
  MIC: 0.25 µg/mL (≈ 0.484 µM)
ATCC29213, strain 115273C
  MIC: 0.25 µg/mL (≈ 0.484 µM)
ATCC29213, strain 115295C
  MIC: 0.125 µg/mL (≈ 0.242 µM)
ATCC29213, strain 115303C
  MIC: 0.25 µg/mL (≈ 0.484 µM)
ATCC29213, strain 115370U
  MIC: 0.5 µg/mL (≈ 0.968 µM)
ATCC29213, strain 115427C
  MIC: 0.125 µg/mL (≈ 0.242 µM)
ATCC29213, strain 115445C
  MIC: 0.25 µg/mL (≈ 0.484 µM)
ATCC29213, strain 115561C
  MIC: 0.125 µg/mL (≈ 0.242 µM)
ATCC29213, strain 115584D
  MIC: 0.25 µg/mL (≈ 0.484 µM)
ATCC29213, strain 115628T
  MIC: 8 µg/mL (≈ 15.5 µM)
ATCC29213, strain 115690C
  MIC: 8 µg/mL (≈ 15.5 µM)
ATCC29213, strain 115691T
  MIC: 0.25 µg/mL (≈ 0.484 µM)
ATCC29213, strain 115740E
  MIC: 0.25 µg/mL (≈ 0.484 µM)
ATCC29213, strain 115810E
  MIC: 0.25 µg/mL (≈ 0.484 µM)
ATCC29213, strain 115903T
  MIC: 8 µg/mL (≈ 15.5 µM)
ATCC29213, strain 116122T
  MIC: 0.125 µg/mL (≈ 0.242 µM)
ATCC29213, strain ATCC 29213
  MIC: 0.06 µg/mL (≈ 0.116 µM)
ATCC29213, strain E5-1029252
  MIC: 0.25 µg/mL (≈ 0.484 µM)
ATCC29213, strain E5-1029558
  MIC: 16 µg/mL (≈ 31 µM)
ATCC29213, strain E5-1030440
  MIC: 0.25 µg/mL (≈ 0.484 µM)
ATCC29213, strain E5-1030469
  MIC: 0.125 µg/mL (≈ 0.242 µM)
ATCC29213, strain E5-1030472
  MIC: 0.25 µg/mL (≈ 0.484 µM)
ATCC29213, strain E5-1030482
  MIC: 16 µg/mL (≈ 31 µM)
ATCC29213, strain E5-1033076 (first line, r202)
  MIC: 0.25 µg/mL (≈ 0.484 µM)
ATCC29213, strain E5-1033076 (second line, r203)
  MIC: 0.25 µg/mL (≈ 0.484 µM)
ATCC29213, strain E5-1033088
  MIC: 0.25 µg/mL (≈ 0.484 µM)
ATCC29213, strain E5-1033091
  MIC: 0.03 µg/mL (≈ 0.0581 µM)
ATCC29213, strain E5-1035277
  MIC: 16 µg/mL (≈ 31 µM)
ATCC29213, strain E5-1035284
  MIC: 0.25 µg/mL (≈ 0.484 µM)
ATCC29213, strain E5-1035775
  MIC: > 16 µg/mL
ATCC29213, strain E5-1035779
  MIC: 0.125 µg/mL (≈ 0.242 µM)
ATCC29213, strain E5-1037958
  MIC: 16 µg/mL (≈ 31 µM)
ATCC29213, strain E5-1037971
  MIC: 0.25 µg/mL (≈ 0.484 µM)
ATCC29213, strain E5-1038279
  MIC: 4 µg/mL (≈ 7.74 µM)
ATCC29213, strain E5-1038286
  MIC: 0.25 µg/mL (≈ 0.484 µM)
ATCC29213, strain E5-1038294
  MIC: 0.25 µg/mL (≈ 0.484 µM)
ATCC29213, strain E5-1039684
  MIC: 16 µg/mL (≈ 31 µM)
ATCC29213, strain E5-1039697
  MIC: 0.5 µg/mL (≈ 0.968 µM)
ATCC29213, strain E5-1041977
  MIC: 16 µg/mL (≈ 31 µM)
ATCC29213, strain E5-1041979
  MIC: 0.25 µg/mL (≈ 0.484 µM)
ATCC29213, strain E5-1041980
  MIC: 0.25 µg/mL (≈ 0.484 µM)
ATCC29213, strain E5-1041987
  MIC: 16 µg/mL (≈ 31 µM)
ATCC29213, strain E5-1043184
  MIC: 16 µg/mL (≈ 31 µM)
ATCC29213, strain E5-1043668
  MIC: 1 µg/mL (≈ 1.94 µM)
ATCC29213, strain E5-1045179
  MIC: 0.25 µg/mL (≈ 0.484 µM)
ATCC29213, strain E5-1046019
  MIC: 0.25 µg/mL (≈ 0.484 µM)
ATCC29213, strain E5-1046020
  MIC: 0.25 µg/mL (≈ 0.484 µM)
ATCC29213, strain E5-1046039
  MIC: 0.25 µg/mL (≈ 0.484 µM)
ATCC29213, strain E5-1046070
  MIC: 0.25 µg/mL (≈ 0.484 µM)
ATCC29213, strain E5-1046074
  MIC: 0.125 µg/mL (≈ 0.242 µM)
ATCC29213, strain E5-1046085
  MIC: 8 µg/mL (≈ 15.5 µM)
ATCC29213, strain E5-1046096
  MIC: 0.5 µg/mL (≈ 0.968 µM)
ATCC29213, strain E5-1046296
  MIC: 0.125 µg/mL (≈ 0.242 µM)
ATCC29213, strain E5-1046297
  MIC: 0.125 µg/mL (≈ 0.242 µM)
ATCC29213, strain E5-1046298
  MIC: 0.125 µg/mL (≈ 0.242 µM)
ATCC29213, strain E5-1046723
  MIC: 0.5 µg/mL (≈ 0.968 µM)
ATCC29213, strain E5-1047585
  MIC: 0.25 µg/mL (≈ 0.484 µM)
ATCC29213, strain E5-1047606
  MIC: 8 µg/mL (≈ 15.5 µM)
ATCC29213, strain E5-1047924
  MIC: 0.25 µg/mL (≈ 0.484 µM)
ATCC29213, strain E5-1048204
  MIC: 0.25 µg/mL (≈ 0.484 µM)
ATCC29213, strain E5-1048428
  MIC: 0.5 µg/mL (≈ 0.968 µM)
ATCC29213, strain E5-1048654
  MIC: 0.5 µg/mL (≈ 0.968 µM)
ATCC29213, strain E5-1048670
  MIC: 0.5 µg/mL (≈ 0.968 µM)
ATCC29213, strain EEFIC 01
  MIC: 4 µg/mL (≈ 7.74 µM)
ATCC29213, strain EEFIC 02
  MIC: 4 µg/mL (≈ 7.74 µM)
ATCC29213, strain K000772
  MIC: > 16 µg/mL
ATCC29213, strain K000796
  MIC: 8 µg/mL (≈ 15.5 µM)
ATCC29213, strain K000863
  MIC: 1 µg/mL (≈ 1.94 µM)
ATCC29213, strain K000864
  MIC: 0.25 µg/mL (≈ 0.484 µM)
ATCC29213, strain K000866
  MIC: 8 µg/mL (≈ 15.5 µM)
ATCC29213, strain K115498
  MIC: 0.125 µg/mL (≈ 0.242 µM)
ATCC29213, strain K115688
  MIC: 0.125 µg/mL (≈ 0.242 µM)
ATCC29213, strain K115689
  MIC: 0.125 µg/mL (≈ 0.242 µM)
ATCC29213, strain R000019
  MIC: 0.125 µg/mL (≈ 0.242 µM)
ATCC29213, strain R000020
  MIC: 0.125 µg/mL (≈ 0.242 µM)
ATCC29213, strain R000024
  MIC: 16 µg/mL (≈ 31 µM)
ATCC29213, strain U115579
  MIC: 0.25 µg/mL (≈ 0.484 µM)
ATCC 29213 / MRSA, strain MRSA 01
  MIC: 0.125 µg/mL (≈ 0.242 µM)
ATCC 29213 / MRSA, strain MRSA 02
  MIC: 0.5 µg/mL (≈ 0.968 µM)
ATCC 29213 / MRSA, strain MRSA 03
  MIC: 16 µg/mL (≈ 31 µM)
ATCC 29213 / MRSA, strain MRSA 04
  MIC: 0.25 µg/mL (≈ 0.484 µM)
ATCC 29213 / MRSA, strain MRSA 05
  MIC: 0.125 µg/mL (≈ 0.242 µM)
ATCC 29213 / MRSA, strain MRSA 06
  MIC: 0.125 µg/mL (≈ 0.242 µM)
ATCC 29213 / MRSA, strain MRSA 07
  MIC: 0.25 µg/mL (≈ 0.484 µM)
ATCC 29213 / MRSA, strain MRSA 08
  MIC: 0.125 µg/mL (≈ 0.242 µM)
ATCC 29213 / MRSA, strain MRSA 09
  MIC: 0.25 µg/mL (≈ 0.484 µM)
ATCC 29213 / MRSA, strain MRSA 10
  MIC: 1 µg/mL (≈ 1.94 µM)
ATCC 29213 / MRSA, strain MRSA 11
  MIC: 1 µg/mL (≈ 1.94 µM)
ATCC 29213 / MRSA, strain MRSA 12
  MIC: 4 µg/mL (≈ 7.74 µM)
ATCC 29213 / MRSA, strain MRSA 13
  MIC: 4 µg/mL (≈ 7.74 µM)
ATCC 29213 / MRSA, strain MRSA 14
  MIC: > 16 µg/mL
